According to patent US20100168228A1, “NOVEL CHEMOTHERAPEUTIC AGENTS AGAINST INFLAMMATION AND CANCER” (RELIANCE LIFE SCIENCES PVT. LTD., priority 2006, published 2010):

Columns and labels:
TNFα = test: Bioassay of TNFα production by LPS activated RAW 264.7 macrophages using L929 cell line; format: cell-based; details: Mus musculus; L929 + ActD + supernatant from LPS + compound (10 μM) treated RAW 264.7 macrophage; crystal violet; mean ± S.D. of triplicate; read-out: PERCENTAGE CELL SURVIVAL ± S.D.
Description: Measurement of TNFα in culture medium or supernatant is performed using immunoassay and bioassay. Bioassay was used for the measurement of bioactive TNFα production in the culture medium.
TNFα secretion into the medium by LPS activated macrophage was assayed using L929 tumorigenic murine cells (ATCC) specifically sensitive to TNFα. L929 cell cytotoxicity assay was performed by a modified method (Sano et al., The Journal of Immunology, 1999, 163: 387-395 The Journal of Immunology, 1999, 163: 387-395) based on that described elsewhere (Flick D A, Gifford G E. J Immunol Methods. 1984 Mar. 30; 68(1-2): 167-175). Briefly, the L929 cells (log phase cells) were seeded into a flat bottom 96 well plates (6×10^4/well) in 100 μl volume of RPMI 1640 containing 2% FCS and incubated overnight at 37° C. in a 5% CO2 incubator. A working dilution of the culture supernatant collected from LPS (200 ng/ml) activated macrophage in a volume of 100 μl per well was first tested to obtain 70-75% cytotoxicity equivalent to […] of recombinant TNFα standard to the TNFα sensitive L929 cell line. After incubation of the L929 cells appropriate fixed dilution of the culture supernatant collected from the compound treated (10 μM) wells, containing the LPS stimulated macrophages in a volume of 100 μl with 2 μg/ml Actinomycin D (Act D) was taken and added to the L929 cells and the cells were incubated at room temperature for 15 min followed by 18 h incubation at 37° C. overnight with 5% CO2. On the next day the medium was removed and the cells were stained with 0.2% (w/v) crystal violet for 10 minutes. The wells were gently rinsed with water, and 33% acetic acid (100 μl/well) was added to extract the retained crystal violet. The absorbance at 570 nm was finally measured.
Tumor necrosis factor-α can cause direct cytotoxicity to the lung fibroblast cell line (L929). Bioassay of TNF α is designated on the basis of this cytotoxicity of TNF α, which can be used for the identification of murine TNF α activity in tissue culture supernatants. Culture supernatant collected from the synthetic molecules treated well containing LPS stimulated macrophage modulated the extent of cytotoxicity to the L929 cells (see Table 1).

RAW 264.7 cells = test: Nitrite quantification (Griess) in LPS stimulated macrophages; format: cell-based, mouse; details: RAW 264.7 + LPS (200 ng/ml) + 10 μM compound, 24 h; LPS + DMSO control 14.560, basal 0.782
Description: NO2^− accumulation was used as an indicator of Nitric Oxide (NO) production in the medium as described previously (Green et al., 1982 Anal Biochem 126, 131-138). […] The isolated supernatants were mixed with an equal volume of Griess reagent (1% sulfanilamide, 0.1% naphthylenediamine dihydrochloride, and 2% phosphoric acid) and incubated at room temperature for 15 min. NaNO2 was used to generate a standard curve, and nitrite production was determined by measuring the optical density at 540 nm.
To estimate the anti-inflammatory effects of all the synthetic molecules listed in this study, we measured the accumulation of nitrite, the stable metabolite of NO, in the culture media using Griess reagent.
To investigate the effect of CAMVE on NO production, we measured the accumulation of nitrite, the stable metabolite of NO, in the culture media using Griess reagent. To investigate the effect of CAMVE on NO production, Raw 264.7 cells, pretreated with indicated concentrations of CAMVE for 1 h were incubated with LPS (250 ng/ml) for 24 h.

Structure (SMILES)	viability at 10 µM (TNFα)	CONCENTRATION OF NITRITE μM ± SD (RAW 264.7 cells)
C/C=C/c1cc(OC)c2c(c1)[C@@H](C)[C@H](c1ccc(OC(=O)/C=C/c3ccc(O)c(OC)c3)c(OC)c1)O2 (racemic) [compound 25, (±)-2β-[4-O-(3-methoxy-4-hydroxycinnamoyl)-3-methoxyphenyl]-3α-methyl-7-methoxy-5-[(E)-1-propenyl]-2,3-dihydrobenzofuran]	53.7 ± 2.05%	7.871 ± 0.168 µM
COc1cc(C=O)ccc1OC(=O)/C=C/c1ccc(O)c(O)c1 [compound 8, 4-formyl-2-methoxyphenyl (2E)-3-(3,4-dihydroxyphenyl)acrylate]	67.8 ± 1.25%	3.893 ± 0.133 µM
COC(=O)/C=C/c1ccc(OC(=O)c2ccc(O)c(OC)c2)c(OC)c1 [compound 11, 2-methoxy-4-[(1E)-3-methoxy-3-oxoprop-1-en-1yl]phenyl 4-hydroxy-3-methoxybenzoate]	52.4 ± 1.51%	5.604 ± 0.668 µM
COC(=O)/C=C/c1cc(OC)c2c(c1)[C@@H](C(=O)OC)[C@H](c1ccc(OC(=O)/C=C/c3ccc(O)cc3)c(OC)c1)O2 [compound 24]	50.3 ± 1.28%	8.582 ± 0.214 µM
COc1cc([C@@H]2Oc3c(O)cc(/C=C/C(=O)O)cc3[C@H]2C(=O)O)ccc1O [compound 28, 5-[(E)-2-carboxyvinyl]-7-hydroxy-2β-(4-hydroxy-3-methoxyphenyl)-2,3-dihydro-1-benzofuran-3α-carboxylic acid]	66.4 ± 1.11%	7.604 ± 0.204 µM
COC(=O)/C=C/c1cc(OC)c2c(c1)[C@@H](C(=O)OC)[C@H](c1ccc(OC(=O)/C=C/c3ccc(O)c(O)c3)c(OC)c1)O2 [compound 6, Methyl (E)-3-[2β-{4-O-(3,4-dihydroxycinnamoyl)-3-methoxyphenyl}-7-methoxy-3α-methoxycarbonyl-2,3-dihydro-1-benzofuran-5-yl]prop-2-enoate]	66.6 ± 1.49%	3.204 ± 0.168 µM
COc1cc(C=O)ccc1OC(=O)/C=C/c1ccc(O)cc1 [compound 19, 4-formyl-2-methoxyphenyl (2E)-3-(4-hydroxyphenyl)acrylate]	51.6 ± 1.57%	8.227 ± 0.115 µM
COC(=O)c1ccccc1OC(=O)c1ccc(O)c(OC)c1 [compound 9, 2-(Methoxycarbonyl)phenyl 4-hydroxy-3-methoxybenzoate]	51.1 ± 2.77%	7.582 ± 0.868 µM
C=CCc1ccc(OC(=O)c2ccc(O)c(OC)c2)c(OC)c1 [compound 13, 4-allyl-2-methoxyphenyl 4-hydroxy-3-methoxybenzoate]	50.6 ± 1.6%	8.004 ± 0.379 µM
COC(=O)c1ccc(OC(=O)c2ccc(O)c(OC)c2)c(OC)c1 [compound 10, 2-methoxy-4-(methoxycarbonyl)phenyl 4-hydroxy-3-methoxy benzoate]	51.6 ± 1.4%	6.849 ± 0.806 µM
C=CCc1ccc(OC(=O)/C=C/c2ccc(O)c(O)c2)c(OC)c1 [compound 4, 4-allyl-2-methoxyphenyl (2E)-3-(3,4-dihydroxyphenyl)acrylate]	69.1 ± 1.49%	3.093 ± 0.437 µM
COC(=O)/C=C/c1ccc(OC(=O)/C=C/c2ccc(O)cc2)c(OC(=O)/C=C/c2ccc(O)cc2)c1 [compound 22, methyl [3,4-bis O-(4-hydroxyphenylacryloyl)]phenylacrylate]	65.6 ± 1.33%	3.982 ± 0.301 µM
COc1cc(C(=O)Oc2ccc(C=O)cc2OC)ccc1O [compound 15, 4-formyl-2-methoxyphenyl 4-hydroxy-3-methoxybenozoate]	50.9 ± 1.84%	8.271 ± 0.342 µM
COC(=O)c1ccc(OC(=O)c2cc(O)c(O)c(O)c2)c(OC)c1 [compound 26, 2-methoxy-4-(methoxycarbonyl)phenyl 3,4,5-trihydroxybenzoate]	58.8 ± 2.15%	6.138 ± 0.567 µM
COC(=O)/C=C/c1ccc(OC(=O)/C=C/c2ccc(O)c(O)c2)c(OC)c1 [compound 2, 2-methoxy-4-[(1E)-3-methoxy-3-oxoprop-1-en-1-yl]phenyl (2E)-3-(3,4 dihydroxyphenyl)acrylate]	68%	2.404 ± 0.168 µM
